Measured values from patent publication US20100035802A1, “PARTICULAR SHORT-CHAIN PEPTIDE CANCER DRUG AND ITS TREATMENT” (priority 2007, published 2010).

Columns and labels:
cancer cells = test: animal experiments: growth of cancer cells added with the short-chain peptide; format: in vivo; settings: after having been added with the short-chain peptide for a certain period of time
Text: (§1) In Attachment, Photos 1˜3 show the cell cycles of liver cancer cells respectively added and not added with the particular short-chain peptide in cell experiments. Photos 4 and 5 show the growth of cancer cells respectively added and not added with the particular short-chain peptide in animal experiments.

liver cancer cells = test: cell experiments: survival and death rate of cancer cells added with the short-chain peptide; format: cell-based
Text: The percent of normal cancer cells 1 is equal to the number of normal cancer cells divided by the summation of the number of normal cancer cells, the number of interphase cancer cells and the number of mitotic phase cancer cells. The percent of interphase cancer cells 2 is equal to the number of interphase cancer cells divided by the summation of the number of normal cancer cells, the number of interphase cancer cells and the number of mitotic phase cancer cells. The percent of mitotic phase cancer cells 3 is equal to the number of mitotic phase cancer cells divided by the summation of the number of normal cancer cells, the number of interphase cancer cells and the number of mitotic phase cancer cells. The percent of dead cancer cells 4 is equal to the number of dead cancer cells divided by the summation of the number of normal cancer cells, the number of interphase cancer cells, the number of mitotic phase cancer cells and the number of dead cancer cells.
In cell experiments, the survival rate of cancer cells added with none of the short-chain peptide is as high as 95%. Apoptosis of cancer cells begins as soon as the short-chain peptide is added to cancer cells; it's obviously found out that after 24 hours, the survival rate of cancer cells is lowered to about 25% and the death rate is raised to about 70%, 35 to 40 times of normal death rate.
as §1

Substance: RGDLASLQKAAHGHVRKAFKSHVSTLTDLQPYMRQFVAHLQETSPLRD (RGDLASLQKAAHGHVRKAFKSHVSTLTDLQPYMRQFVAHLQETSPLRD) [short-chain peptide, unique short-chained peptide composed of 48 amino acids]
- death of cancer cells in animal experiments (Photo 5) (cancer cells): die massively via apoptosis
- effect on cell cleavage of cancer cells (liver cancer cells; cancer cells added with the short-chain peptide): stagnating on the stage of cell cleavage for being further induced to apoptosis to death
- death rate of cancer cells (liver cancer cells; cell experiments, after 24 hours with the short-chain peptide): about 70%
- survival rate of cancer cells (liver cancer cells; cell experiments, after 24 hours with the short-chain peptide (without peptide 95%)): about 25%
- death rate of the liver cancer cells (liver cancer cells; liver cancer cells, after 24-hour culture, repeated experiments): about 70%
